Where “and” joins values, the source holds several entries; their conditions need not be identical. Equal entries are not always repeated. Where two headings read alike, the source gives them in different places.
Test: Pharmacokinetics of compound 6 in rats (intragastric, intravenous)
Format: in vivo, SD rats
Conditions: for Vd: read-out: Vss
Protocol: 6 SD rats, male, weight 180-200 g, intragastric or intravenous administration of compound 6 (Table 3):
For intragastric administration, the compound was formulated into a suspension with 1% MC, and for intravenous injection the compound was formulated with DMSO: 20% PEG400 (5:95). Fasting for 12 hours before the test, free drinking water. The rats were all fed 2 hours after administration.
Intragastric administration: 0.25, 0.5, 1.0, 2.0, 4.0, 6.0, 8.0 and 24 h after administration;
Intravenous administration: 5 min, 0.25, 0.5, 1.0, 2.0, 4.0, 6.0, 8.0 and 24 h after administration;
At the above set point, the venous blood was taken from the posterior venous plexus of the rat eyes, and placed in a EDTA-2K tube, centrifuged at 11000 rpm for 5 min, the plasma was separated and frozen in a −20° C. refrigerator.
The concentration of compound 6 in rat plasma was determined by LC/MS/MS.
Pharmacokinetic parameters after administration were calculated using the non-compartmental model of the WinNonlin 5.3 software (Pharsight, USA).
Peak concentration Cmax and peak time Tmax are measured value;
Drug area under the curve AUC0−t value: using trapezoidal method; AUC0−∞=AUC0−t+Ct/ke, Ct is the blood concentration at the last measurable time point, ke is the elimination rate constant;
Elimination half-life t1/2=0.693/ke;
Mean residence time MRT=AUMC/AUC.
Clearance rate CL=D/AUC0−∞;
Steady state distribution volume Vss=CL×MRT
Absolute Bioavailability F=(AUCintragastric×Dintravenous)/(AUCintravenous×Dintragastric)×100%

[1] = intragastric 10 mg/kg, individual rat
[2] = intravenous 1 mg/kg, individual rat
[3] = male, SD, rat, plasma, iv, 1 mg/kg, intravenous 1 mg/kg, individual rat
[4] = male, SD, rat, plasma, iv, 1 mg/kg, intravenous 1 mg/kg, mean
[5] = male, SD, rat, plasma, po, 10 mg/kg, intragastric 10 mg/kg, individual rat
[6] = male, SD, rat, plasma, po, 10 mg/kg, intragastric 10 mg/kg, mean

Q: With `CS(=O)(CCNc1nonc1/C(=N/O)Nc1ccc(F)c(Br)c1)=NC#N` (racemic) [compound 6, (±)(Z)—N-(3-bromo-4-fluorophenyl)-N′-hydroxy-4-((2-(thio-methylsulfoxidecyanoimine)ethyl)amino)-1,2,5-oxadiazole-3-carboxamidine] as the compound, how does the AUC0-t [1] read?
A: The AUC0-t was 2817 ng·h/mL and 2795 ng·h/mL.

Q: And the “AUC0-∞” value [1]?
A: Its value is 3007 ng·h/mL and 3008 ng·h/mL.

Q: What about the Cmax [1] of the same compound?
A: Its Cmax is 854 ng/mL and 659 ng/mL.

Q: And the MRT [1]?
A: The MRT was 3.27 h and 3.47 h.

Q: And the Tmax [1]?
A: The Tmax was 1.00 h.

Q: What about the t1/2 [1] of the same compound?
A: The t1/2 was 1.80 h.

Q: What about the AUC0-t (intragastric 10 mg/kg, mean) of the same compound?
A: The AUC0-t was 2651 ng·h/mL.

Q: And the AUC0-t [2]?
A: The AUC0-t was 505 ng·h/mL and 547 ng·h/mL.

Q: And the “AUC0-∞” value [2]?
A: The value was 534 ng·h/mL and 555 ng·h/mL.

Q: And the CL [2]?
A: Its CL is 31.2 mL/min/kg and 30 mL/min/kg.

Q: What about the MRT [2] of the same compound?
A: The MRT was 2.03 h and 1.67 h.

Q: And the Vss [2]?
A: The Vss was 3.79 L/kg and 3.02 L/kg.

Q: And the t1/2 [2]?
A: The t1/2 was 2.51 h and 1.32 h.

Q: And the AUC0-t (intravenous 1 mg/kg, mean)?
A: Its AUC0-t is 533 ng·h/mL.

Q: And the CL (intravenous 1 mg/kg, mean)?
A: Its CL is 30.3 mL/min/kg.

Q: And the AUC(0-inf) [3]?
A: Its AUC(0-inf) is 563 ng·h/mL.

Q: And the clearance [3]?
A: The clearance was 29.7 mL/min/kg.

Q: What about the half-life [3] of the same compound?
A: Its half-life is 1.71 h.

Q: And the AUC0-t (male, SD, rat, plasma, iv, 1 mg/kg, intravenous 1 mg/kg, individual rat, read-out: AUC0-t)?
A: The AUC0-t was 546 ng·h/mL.

Q: And the MRT (male, SD, rat, plasma, iv, 1 mg/kg, intravenous 1 mg/kg, individual rat, read-out: MRT)?
A: Its MRT is 1.91 h.

Q: What about the Vd [3] of the same compound?
A: Its Vd is 3.39 L/kg.

Q: What about the AUC(0-inf) [4] of the same compound?
A: Its AUC(0-inf) is 551 ng·h/mL.

Q: What about the clearance [4] of the same compound?
A: Its clearance is 30.3 mL/min/kg.

Q: What about the half-life [4] of the same compound?
A: Its half-life is 1.85 h.

Q: And the AUC0-t (male, SD, rat, plasma, iv, 1 mg/kg, intravenous 1 mg/kg, mean, read-out: AUC0-t)?
A: Its AUC0-t is 533 ng·h/mL.

Q: What about the MRT (male, SD, rat, plasma, iv, 1 mg/kg, intravenous 1 mg/kg, mean, read-out: MRT) of the same compound?
A: Its MRT is 1.87 h.

Q: What about the Vd [4] of the same compound?
A: The Vd was 3.4 L/kg.

Q: And the bioavailability (male, SD, rat, plasma, oral, intragastric 10 mg/kg vs intravenous 1 mg/kg, dose normalized, read-out: F (absolute bioavailability))?
A: The bioavailability was 49.8%.

Q: What about the AUC(0-inf) [5] of the same compound?
A: The AUC(0-inf) was 2480 ng·h/mL.

Q: What about the half-life [5] of the same compound?
A: The half-life was 1.58 h.

Q: What about the AUC0-t (male, SD, rat, plasma, po, 10 mg/kg, intragastric 10 mg/kg, individual rat, read-out: AUC0-t) of the same compound?
A: Its AUC0-t is 2340 ng·h/mL.

Q: What about the Cmax (male, SD, rat, plasma, po, 10 mg/kg, intragastric 10 mg/kg, individual rat, read-out: Cmax) of the same compound?
A: Its Cmax is 593 ng/mL.

Q: And the MRT (male, SD, rat, plasma, po, 10 mg/kg, intragastric 10 mg/kg, individual rat, read-out: MRT)?
A: Its MRT is 3.35 h.

Q: What about the Tmax (male, SD, rat, plasma, po, 10 mg/kg, intragastric 10 mg/kg, individual rat, read-out: Tmax) of the same compound?
A: The Tmax was 2 h.

Q: What about the AUC(0-inf) [6] of the same compound?
A: The AUC(0-inf) was 2830 ng·h/mL.

Q: And the half-life [6]?
A: Its half-life is 1.73 h.

Q: What about the AUC0-t (male, SD, rat, plasma, po, 10 mg/kg, intragastric 10 mg/kg, mean, read-out: AUC0-t) of the same compound?
A: Its AUC0-t is 2650 ng·h/mL.

Q: And the Cmax (male, SD, rat, plasma, po, 10 mg/kg, intragastric 10 mg/kg, mean, read-out: Cmax)?
A: The Cmax was 702 ng/mL.

Q: And the MRT (male, SD, rat, plasma, po, 10 mg/kg, intragastric 10 mg/kg, mean, read-out: MRT)?
A: The MRT was 3.36 h.

Q: What about the Tmax (male, SD, rat, plasma, po, 10 mg/kg, intragastric 10 mg/kg, mean, read-out: Tmax) of the same compound?
A: The Tmax was 1.33 h.

From US11053207B2, “Indoleamine-2,3-dioxygenase inhibitor and preparation method therefor” (SHANGHAI INSTITUTE OF ORGANIC CHEMISTRY, CHINESE ACADEMY OF …, priority 2014, dated 2021)
